From PMC10343752, “Anti-α-Glucosidase, SAR Analysis, and Mechanism Investigation of Indolo[1,2-b]isoquinoline Derivatives” (Molecules, 2023) come the findings set out here.

Broadly, the IC50 is the point on the concentration scale where inhibition reaches its midpoint. As usually defined, the Ki is the dissociation constant of the complex between target and ligand, obtained from inhibition or displacement. One may read the Vmax as the top rate of the reaction or transport when substrate is in excess.

In one data set the test system is hepatocytes LO2 cells. Kind of data set: In vitro cytotoxicity, MTT method. Format: cell-based. The note with it: 24 h, up to a concentration of 32 μM. As to the method: The in vitro cytotoxicity of compounds 9, 11, 13, 18, and 19 against hepatocytes LO2 cells was detected using the MTT method.
The in vitro cytotoxicity of compound 11 against hepatocytes LO2 cells was assayed using the MTT method. LO2 cells were cultured in DMEM containing 10% FBS, 100 IU/mL penicillin, and 100 IU/mL streptomycin at 37 °C under 5% CO2. An amount of 100 μL of LO2 cells was seeded into a 96-well plate (5000 per well) for 24 h, and was then treated with compounds 9, 11, 13, 18, and 19 for 24 h, respectively. Then, MTT solution was added into each well and incubated for 4 h. An amount of […] of DMSO was used to dissolve the obtained crystallization. Then, this absorbance was determined at 490 nm. Each sample was performed in triplicate.
On the technique in general: Formazan colour is commonly taken as a measure of viable cells.

The target of data set [1] is T1, α-glucosidase from Saccharomyces cerevisiae (Saccharomyces cerevisiae, UniProt P53341).
T1 construct: purchased Sigma-Aldrich
T1 sequence (P53341 whole entry): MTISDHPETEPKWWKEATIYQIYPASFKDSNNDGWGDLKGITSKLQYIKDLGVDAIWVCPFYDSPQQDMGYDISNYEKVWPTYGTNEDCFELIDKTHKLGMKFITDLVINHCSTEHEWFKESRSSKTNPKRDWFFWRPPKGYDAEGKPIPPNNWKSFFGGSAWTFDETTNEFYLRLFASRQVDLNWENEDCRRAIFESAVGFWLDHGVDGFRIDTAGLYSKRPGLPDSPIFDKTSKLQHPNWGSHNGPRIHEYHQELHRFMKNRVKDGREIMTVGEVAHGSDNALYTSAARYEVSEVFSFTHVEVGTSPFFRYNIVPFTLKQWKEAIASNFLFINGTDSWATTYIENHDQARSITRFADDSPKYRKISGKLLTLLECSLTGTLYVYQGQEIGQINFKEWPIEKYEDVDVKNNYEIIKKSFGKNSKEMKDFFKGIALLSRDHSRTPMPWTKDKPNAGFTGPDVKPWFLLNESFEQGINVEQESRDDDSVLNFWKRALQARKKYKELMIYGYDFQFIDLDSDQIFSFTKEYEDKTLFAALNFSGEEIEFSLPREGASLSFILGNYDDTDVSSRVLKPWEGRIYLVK
Kind of data set: biochemical. The note with it: α-glucosidase 0.1 U/mL, PNPG 0.25 mM, pH 6.8, 37 °C; read-out: α-Glucosidase inhibitory activity IC50. The class given is biochemical. How it is done: (§1) α-Glucosidase from Saccharomyces cerevisiae (EC 3.2.1.20) was purchased from Sigma-Aldrich. p-Nitrophenyl-α-D-[…] (PNPG) was obtained from Abcam. Other reagents were commercially available.
After the addition of PNPG (0.25 mM), the change in absorbance was measured at 405 nm. […] All experiments were performed four times.

Data set [2] deals with T2, α-glucosidase (Saccharomyces cerevisiae, UniProt P53341).
T2 construct: purchased Sigma-Aldrich
T2 sequence (P53341 whole entry): as above
As to the kind of experiment: 3D fluorescence spectra of α-glucosidase with compounds. Format: binding. The note with it: α-glucosidase 5 μM.
Excerpt: The 3D fluorescence spectra of α-glucosidase with compounds 9, 11, 13, 18, and 19 was investigated to analyze the effect of compounds on the structure of α-glucosidase, respectively. Two important characteristic peaks appeared in the 3D fluorescence spectra of α-glucosidase (Figure 6a,c,e,g,i), including Peak 1 ([…]), corresponding to the main chain structure of the polypeptide, and Peak 2 ([…]), corresponding to tyrosine and tryptophan residues. […] (Figure 6b,d,f,h,j). Previously, 3D fluorescence spectra have been used to determine protein conformation changes.
as §1
Compounds 9, 11, 13, 18, and 19 were added to α-glucosidase (5 μM) in 100 μL of PBS and incubated for 5 min, then the 3D fluorescence spectra of the mixture were recorded [32]^. The excitation and emission wavelengths were 200–500 nm and the slit width was 2.5 nm. All data were imported into Matlab for processing.

Data set [3] has as its target T2, α-glucosidase. As to the kind of experiment: α-glucosidase inhibition kinetics (enzyme kinetics and Lineweaver-Burk substrate kinetics). Format: biochemical. The note with it: for inhibition type (substrate kinetics): Lineweaver-Burk plots; for Ki / Kis / Vmax: inhibition kinetics constant; for reversibility of inhibition (enzyme kinetics): plots of remaining enzyme activity versus enzyme concentration.
Excerpt: Compounds 9, 11, 13, 18, and 19 with different α-glucosidase inhibitory activity were selected as representative compounds to reveal the inhibition mechanism of indolo[1,2-b]isoquinoline derivatives (1–21) on α-glucosidase by the implementation of an inhibition kinetics study. […] For substrate kinetics (Figure 5b,d,f,h,j), the Lineweaver-Burk plots of remaining enzyme activity versus […] treated with compounds 9, 11, 13, 18, and 19 intersected at one point in the second quadrant, respectively. The inhibition kinetics study was an effective method by which to understand the inhibition mechanism of the inhibitor against the target protein. In a substrate kinetics study, different inhibition mechanisms of inhibitors manifested as different intersection positions of Lineweaver-Burk plots. […] Moreover, compounds 9, 11, 13, 18, and 19 bind with both free enzyme and enzyme-substrate complexes to inhibit α-glucosidase. The inhibition kinetics constants of compounds 9, 11, 13, 18, and 19 were obtained and are listed in Table 2, including Ki, Kis, Km, and Vmax values, which might be helpful to understand the inhibition mechanism.
as §1
The kinetics of enzyme inhibition for compounds 9, 11, 13, 18, and 19 were obtained by plotting the enzymatic reaction rate versus enzyme concentration with or without compounds 9, 11, 13, 18, and 19, and the kinetics of substrate inhibition were measured using Lineweaver Burk plots of the enzymatic reaction rate versus substrate concentration with or without compounds 9, 11, 13, 18, and 19 [37, 38, 39, 40].

Data set [4] concerns the target T2, α-glucosidase. Kind of data set: CD spectra, secondary structure contents of α-glucosidase. The class given is binding. The note with it: for effect on CD band intensity of α-glucosidase: 190~280 nm.
Excerpt: CD spectra were also monitored to study the effect of compounds 9, 11, 13, 18, and 19 on the conformational changes of α-glucosidase. As shown in Figure 7a–e, α-glucosidase presented two negative CD bands in the region of 190~280 nm, which was owed to the electronic transitions of n→π* of α-helical bonds. […] While treatment of compounds 9, 13, 18, and 19 led to an increase of α-helix and a reduction of β-sheet, β-turn, and random coils, respectively (Table 3). CD spectra have been an important method by which to study protein structural changes and secondary structural content. Previous research has shown that the interaction of an inhibitor with α-glucosidase caused the partial folding and loosening of the α-glucosidase structure.
as §1
Compounds 9, 11, 13, 18, and 19 with different concentrations were added into α-glucosidase solution (31 μM) and incubated for 5 min, respectively, then the CD spectra of the mixture were recorded. CDNN was used to analyze the ratio of protein secondary conformations.

[5] abbreviates: molar ratio [α-Glu]:[Comp.] 1:1.
The mark [6] stands for this setting: molar ratio [α-Glu]:[Comp.] 1:2.
Where [7] appears, read: molar ratio [α-Glu]:[Comp.] 1:3.

On to `O=C1c2ccccc2-n2c1c(-c1ccccc1)c1ccc(F)cc1c2=O` [Compound 18], for which the “effect on cell viability” value in the data set on hepatocytes LO2 cells was “no significant effect on cell viability”. Besides, the IC50 in data set [1] stood at 7.97 ± 0.31 µM. For the same molecule, the “effect on fluorescence intensity of Peak 1 and Peak 2 of α-glucosidase” value on α-glucosidase [2] is recorded as “decrease the fluorescence intensity”. At α-glucosidase [3], the “inhibition type (substrate kinetics)” value is given as “mixed-type inhibition”, the Ki came to 4.62 µM, the Kis is 12.34 µM and the Vmax came to 0.08 µM/min/mg. In addition, on α-glucosidase [3], the “reversibility of inhibition (enzyme kinetics)” value is given as “reversible”. Also, the “effect on CD band intensity of α-glucosidase” value at α-glucosidase [4] was “decrease in CD band intensity”. At α-glucosidase [4] (setting [5]), the “Rndm Coil” value was 35.00%, the α-Helix amounted to 11.10%, the β-Sheet worked out at 35.30% and the β-Turn is 19.40%. On α-glucosidase [4] (setting [6]), the “Rndm Coil” value was found to be 35.00%, the α-Helix was 11.20%, the β-Sheet is listed as 35.00% and the β-Turn is on record as 19.30%. Moreover, on α-glucosidase [4] (setting [7]), the “Rndm Coil” value is 34.70%, the α-Helix worked out at 12.80%, the β-Sheet is given as 35.00% and the β-Turn was determined as 19.30%.
For `Cc1ccc2c(c1)-n1c(c(-c3ccccc3)c3cc(C)ccc3c1=O)C2=O` [Compound 19], the “effect on cell viability” value in the data set on hepatocytes LO2 cells is “no significant effect on cell viability”. For the same molecule, the IC50 in data set [1] was found to be 41.2 ± 0.76 µM. Moreover, on α-glucosidase [2], the “effect on fluorescence intensity of Peak 1 and Peak 2 of α-glucosidase” value was “decrease the fluorescence intensity”. At α-glucosidase [3], the “inhibition type (substrate kinetics)” value is “mixed-type inhibition”, the Ki came to 8.38 µM, the Kis worked out at 42.30 µM and the Vmax is 0.05 µM/min/mg. Further, the “reversibility of inhibition (enzyme kinetics)” value on α-glucosidase [3] is “reversible”. For the same molecule, on α-glucosidase [4], the “effect on CD band intensity of α-glucosidase” value is on record as “decrease in CD band intensity”. On α-glucosidase [4] (setting [5]), the “Rndm Coil” value is given as 34.60%, the α-Helix is reported as 12.90%, the β-Sheet is reported as 31.80% and the β-Turn stood at 19.40%. In addition, on α-glucosidase [4] (setting [6]), the “Rndm Coil” value worked out at 34.70%, the α-Helix is on record as 11.50%, the β-Sheet was found to be 34.20% and the β-Turn was found to be 19.30%. Also, on α-glucosidase [4] (setting [7]), the “Rndm Coil” value is on record as 34.90%, the α-Helix is 12.80%, the β-Sheet is 34.40% and the β-Turn stood at 19.30%.
